Entries after “also recorded” stand apart in the source; their conditions may differ.
Assays:
[1] = molecular target: T1, LasR (Pseudomonas aeruginosa, UniProt P25084); assay: E. coli reporter gene primary agonism assay, LasR; format: cell-based; details: compounds at 100 mm; E. coli reporter strain JLD271/pJN105L/pSC11; 100 mm OdDHL = 100%; error ±10%
T1 construct: expressed in transfected cells; host or cells: E. coli JLD271
Description: (§1) Percent agonism of a given non-native inducer in a given bacterium and QS system receptor is measured with resepct to the maximum level of agonism (activation) by the native ligand of that receptor in the given bacterium. Percent antagonism is measured in competitive assays. The QS system of interest is activated to 100% with added or endogenous native ligand and the % antagonism of the non-native inducer is assessed with respect to 100% activation by the native inducer. The native ligand which induces LasR is OdDHL, which induces RhlR is BHL and which induces PqsR is PQS. As described herein and in cited references, assays for assessment of % agonism or % atangonism may be performed in E. coli systems (heterologous) or in the bacterium of interest, e.g., Pseudomonas. Dependent upon the assay system employed native ligand may be endogenously present or it may be exogenously supplied to the assay system. […] In antagonism assays using the native strains with functional QS systems, e.g., those of P. aeruginosa, endogenous native ligand is made in the system, so no native ligand is added. In native strains having one or more non-functional QS systems (mutant strains), e.g., P. aeruginosa mutants with non-functional QS systems, native ligand is added at about 10-100× the EC50 of the native ligand. In the agonism assay, native ligand is added as a control. Details of the assays are provided herein in Example 9 and in references cited in Example 9.

[2] = molecular target: T2, RhlR (Pseudomonas aeruginosa, UniProt P54292); assay: E. coli reporter gene primary agonism assay, RhlR; format: cell-based; details: compounds at 100 mm; 900 mm BHL = 100%; error ±10%; selected data reproduced from Welsh et al., 2015
T2 construct: expressed in transfected cells; host or cells: E. coli JLD271
T2 sequence (P54292 whole entry): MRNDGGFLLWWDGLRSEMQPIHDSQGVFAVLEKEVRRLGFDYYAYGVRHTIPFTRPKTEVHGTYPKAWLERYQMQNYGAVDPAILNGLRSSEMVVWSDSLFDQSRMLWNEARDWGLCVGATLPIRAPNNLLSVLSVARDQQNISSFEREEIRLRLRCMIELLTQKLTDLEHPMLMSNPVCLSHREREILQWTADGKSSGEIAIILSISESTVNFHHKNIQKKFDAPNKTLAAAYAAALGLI
Description: as §1

[3] = molecular target: T3, QscR (Pseudomonas aeruginosa, UniProt G3XD77); details: compounds at 100 mm; E. coli reporter strain JLD271/pJN105Q/pSC11-Q; 100 mm OdDHL = 100%; error ±10%
T3 sequence (G3XD77 entry or part of it): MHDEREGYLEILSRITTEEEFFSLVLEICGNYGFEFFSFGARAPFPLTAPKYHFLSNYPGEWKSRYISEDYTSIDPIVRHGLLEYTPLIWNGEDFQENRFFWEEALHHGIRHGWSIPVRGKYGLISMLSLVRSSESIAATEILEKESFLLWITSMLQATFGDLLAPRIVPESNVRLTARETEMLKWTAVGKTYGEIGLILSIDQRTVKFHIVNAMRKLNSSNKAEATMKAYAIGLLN
Description: (§2) Construction of pSC11-Q: A 348 bp fragment spanning the upstream region of PA1897 (¢304 to +43 relative to the PA1897 translationalstart codon) was amplified from plasmid pJL101*by using primers 5′-GAATAT GGATCC TCTCTC CGCAGA TACCTG-3′ (BamHI site underlined) SEQ ID NO:5 and 5′-GCTATT GAATTC TGAAGA TGAATA GCGCCAC-3′ (EcoRI site underlined) SEQ ID NO:6. The PCR-generated fragment was digested with EcoRI and BamHI and subsequently ligated into EcoRI/BamHI-digested pPROBE-KT to generate pPROBE-KQ2. […] CGCC-3′ (BamHI site underlined) SEQ ID NO:8. The PCR-generated fragment was digested with SalI and BamHI and subsequently ligated into SalI/BamHI-digested pSC11 to generate pSC11-Q.
(§3) E. coli reporter gene assays: Primary assays for RhlR, LasR, and QscR activity in E. coli JLD271 reporter (beta-galactosidase) strains were performed as reported by Welsh et al. 2015, with the following modifications:
(§4) For all primary and dose-response antagonism assays, the concentration of native ligand utilized was approximately equal to its EC50 value in each bacterial reporter strain. For RhlR, LasR, and QscR primary antagonism assays, synthetic ligand (100 mm) was screened against BHL (10 mm), OdDHL (2 nm), and OdDHL (15 nm), respectively. For RhlR, LasR, and QscR primary agonism assays, synthetic compound (100 mm) was screened alongside and compared to the natural ligand (900 mm BHL or 100 mm OdDHL) for the receptor. As part of the beta-galactosidase assay protocol, plates to which CPRG substrate had been added were incubated at either 25° C. (LasR assay) or 30° C. (RhlR and QscR assays) until positive control wells developed a deep red color (10 min for LasR, 30 min for RhlR, and 60 min for QscR). Dose-response reporter gene assays were performed according to these protocols by using varying concentrations of compound.

[4] = molecular target: T3, QscR; format: cell-based; design: expressed in transfected cells; host or cells: E. coli JLD271; details: compounds at 100 mm against 15 nm OdDHL; E. coli reporter strain JLD271/pJN105Q/pSC11-Q; untreated culture = 100%; error ±10%
Description: as §2, §3, §4

[5] = tested on: P. aeruginosa (PAO1); assay: Pyocyanin assay; format: cell-based, Pseudomonas aeruginosa; details: for pyocyanin production, single compound screens: MOPS Glutamate and Glucose media, complete or iron/phosphate depleted, 17 h, 100 μM (compounds 1, 2, 3), 25 μM (compound 4), relative to DMSO
Description: A. Pyocyanin Assay Protocol. The amount of pyocyanin in P. aeruginosa culture supernatants was measured following a reported protocol (O'Loughlin et al., 2013) with modifications. A 10 mL overnight culture of P. aeruginosa PAO1 was grown for 16 h. DMSO stock solutions of test compounds (20 mM) were prepared, and 10 μL or 5 μL aliquots were added to sterile 15 mL borosilicate glass test tubes. An inoculating culture was prepared by diluting the overnight culture 1:100 into freshly prepared assay medium (see above), and 2 mL aliquots of this subculture were added to each test tube (0.5% DMSO, final). The cultures were grown for 17 h, and the final cell density measured by reading OD600. Relative pyocyanin levels were measured by first pelleting 1.5 mL of well-mixed culture at 4,000 g for 10 min, transferring 200 μL of the resulting supernatant to a clear, plastic 96-well microtiter plate, and reading absorbance at 695 nm. Media background absorbance (measured from a “no bacteria” control) was subtracted, the resulting values growth normalized by dividing by the final OD600378, and the data plotted relative to a DMSO-treated positive control. B. Rhamnolipid Assay Protocol. Rhamnolipid was quantified following a reported protocol (Koch et al., 1991) with modifications. Assay cultures were prepared and grown in an identical manner to the pyocyanin assay above. Aliquots of the final culture supernatant (1 mL) were transferred to 1 dram glass vials and extracted twice with 1 mL diethyl ether. The pooled organic fractions were evaporated to dryness, and the resulting residue reconstituted in 200 μL de-ionized water. In a 1.7 mL plastic centrifuge tube, 50 μL of this extract was diluted into 450 μL of a solution of 0.19% (w/v) orcinol in 50% (v/v) concentrated H2SO4 (or 20 μL extract into 480 μL orcinol solution for cultures grown in MOPS Glucose medium). The tubes were vortexed thoroughly to mix and incubated in an 80° C. heating block for 30 min. After briefly cooling to room temperature, 200 μL of the resulting yellow to yellow-orange solution was transferred to a clear 96-well microtiter plate, and the absorbance at 421 nm measured. Media background absorbance (measured from a “no bacteria” control) was subtracted, the resulting values growth normalized by dividing by the final OD600, and the data plotted relative to a DMSO-treated positive control. C. Elastase B Assay Protocol. The amount of elastase B in P. aeruginosa culture supernatants was measured following a reported protocol (Geske et al., 2007) with modifications. Assay cultures were prepared and grown in an identical manner to the pyocyanin assay above. Aliquots of the final culture supernatant (50 μL) were added to the wells of a clear, plastic 96-well plate. To each well, 150 μL of 0.5% (w/v) elastin-congo red conjugate (Elastin Products Co.) in Tris buffer (10 mM Tris-HCl, 1 mM CaCl2, pH 7.2) was added. The plate was sealed with a polypropylene storage mat (Costar 3080) and incubated in a 37° C. shaking incubator (200 rpm) attached to a Labquake rotator for 12 h (for experiments in SCFM2) or 24 h (for experiments in MOPS medium). To quantify elastase B activity, the undigested elastin was pelleted by centrifugation of the assay plate at 1,500 g for 10 min, after which 100 μL of the supernatant was transferred to a new, clear 96-well plate, and the absorbance at 490 nm measured. Media background absorbance (measured from a “no bacteria” control) was subtracted, the resulting values growth normalized by dividing by the final OD600, and the data plotted relative to a DMSO-treated positive control.

[6] = tested on: P. aeruginosa (PAO1); assay: Rhamnolipid assay; format: cell-based, Pseudomonas aeruginosa; details: MOPS Glutamate and Glucose media, complete or iron/phosphate depleted, 17 h, 100 μM (compounds 1, 2, 3), 25 μM (compound 4), relative to DMSO
Description: (§5) A. Pyocyanin Assay Protocol. The amount of pyocyanin in P. aeruginosa culture supernatants was measured following a reported protocol (O'Loughlin et al., 2013) with modifications. A 10 mL overnight culture of P. aeruginosa PAO1 was grown for 16 h. DMSO stock solutions of test compounds (20 mM) were prepared, and 10 μL or 5 μL aliquots were added to sterile 15 mL borosilicate glass test tubes. An inoculating culture was prepared by diluting the overnight culture 1:100 into freshly prepared assay medium (see above), and 2 mL aliquots of this subculture were added to each test tube (0.5% DMSO, final). The cultures were grown for 17 h, and the final cell density measured by reading OD600. Relative pyocyanin levels were measured by first pelleting 1.5 mL of well-mixed culture at 4,000 g for 10 min, transferring 200 μL of the resulting supernatant to a clear, plastic 96-well microtiter plate, and reading absorbance at 695 nm. Media background absorbance (measured from a “no bacteria” control) was subtracted, the resulting values growth normalized by dividing by the final OD600378, and the data plotted relative to a DMSO-treated positive control. B. Rhamnolipid Assay Protocol. Rhamnolipid was quantified following a reported protocol (Koch et al., 1991) with modifications. Assay cultures were prepared and grown in an identical manner to the pyocyanin assay above. Aliquots of the final culture supernatant (1 mL) were transferred to 1 dram glass vials and extracted twice with 1 mL diethyl ether. The pooled organic fractions were evaporated to dryness, and the resulting residue reconstituted in 200 μL de-ionized water. […] After briefly cooling to room temperature, 200 μL of the resulting yellow to yellow-orange solution was transferred to a clear 96-well microtiter plate, and the absorbance at 421 nm measured. Media background absorbance (measured from a “no bacteria” control) was subtracted, the resulting values growth normalized by dividing by the final OD600, and the data plotted relative to a DMSO-treated positive control. […] The amount of elastase B in P. aeruginosa culture supernatants was measured following a reported protocol (Geske et al., 2007) with modifications. […] To quantify elastase B activity, the undigested elastin was pelleted by centrifugation of the assay plate at 1,500 g for 10 min, after which 100 μL of the supernatant was transferred to a new, clear 96-well plate, and the absorbance at 490 nm measured. Media background absorbance (measured from a “no bacteria” control) was subtracted, the resulting values growth normalized by dividing by the final OD600, and the data plotted relative to a DMSO-treated positive control.

[7] = molecular target: T1, LasR; assay: E. coli reporter gene primary antagonism assay, LasR; format: cell-based; details: compounds at 100 mm against 2 nm OdDHL; E. coli beta-galactosidase reporter strain JLD271/pJN105L/pSC11; untreated culture = 100%; negative values indicate receptor agonism; error ±10%
Description: as §1

[8] = tested on: P. aeruginosa (PAO1); assay: Elastase B assay; format: cell-based, Pseudomonas aeruginosa; details: 17 h
Description: as §5

T1 sequence (P25084 whole entry): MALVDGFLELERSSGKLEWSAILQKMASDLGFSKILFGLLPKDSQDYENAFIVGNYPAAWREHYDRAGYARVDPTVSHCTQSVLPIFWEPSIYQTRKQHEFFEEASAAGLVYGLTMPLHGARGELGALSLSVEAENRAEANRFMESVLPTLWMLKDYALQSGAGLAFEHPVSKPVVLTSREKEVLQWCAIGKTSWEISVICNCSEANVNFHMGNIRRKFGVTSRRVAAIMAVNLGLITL

With `O=C(Cc1ccccc1I)N[C@H]1CCOC1=O` [C12] the “Activation [%] LasR” value [1] was −4%, the “Activation [%] RhlR” value [2] was 70% and the “Activation [%] QscR” value [3] was 5%.

For `C=CCCC(=O)N[C@H]1CCOC1=O` [D8], the “Activation [%] LasR” value [1] was 26%, the “Activation [%] RhlR” value [2] was 81% and the “Activation [%] QscR” value [3] was 13%.

In the case of `Cc1cccc(CC(=O)N[C@H]2CCOC2=O)c1` [E1], the “Activation [%] LasR” value [1] is reported as 21%, the “Activation [%] RhlR” value [2] is reported as 69% and the “Activation [%] QscR” value [3] is reported as 29%.

In the case of `COc1cccc(CC(=O)N[C@H]2CCOC2=O)c1` [E2], the “Activation [%] LasR” value [1] is reported as 23%, the “Activation [%] RhlR” value [2] is reported as 86% and the “Activation [%] QscR” value [3] is reported as 26%.

For `N#Cc1cccc(CC(=O)N[C@H]2CCOC2=O)c1` [E5], the “Activation [%] LasR” value [1] was 62%, the “Activation [%] RhlR” value [2] was 67% and the “Activation [%] QscR” value [3] was 34%.

In the case of `CSc1cccc(CC(=O)N[C@H]2CCOC2=O)c1` [E7], the “Activation [%] LasR” value [1] is reported as 32%, the “Activation [%] RhlR” value [2] is reported as 70% and the “Activation [%] QscR” value [3] is reported as 24%.

With `O=C(CCc1ccc(Cl)cc1)N[C@H]1CCOC1=O` [E30] the “Activation [%] LasR” value [1] was 53%, the “Activation [%] RhlR” value [2] was 64% and the “Activation [%] QscR” value [3] was 79%.

With `O=C(CCc1cccc(Br)c1)N[C@H]1CCOC1=O` [E31] the “Activation [%] LasR” value [1] was 71%, the “Activation [%] RhlR” value [2] was 65% and the “Activation [%] QscR” value [3] was 58%.

With `O=C(CCc1ccc([N+](=O)[O-])cc1)N[C@H]1CCOC1=O` [E37] the “Activation [%] LasR” value [1] was 22%, the “Activation [%] RhlR” value [2] was 69% and the “Activation [%] QscR” value [3] was 65%.

For `O=C(COc1ccc(I)cc1)N[C@H]1CCOC1=O` [compound 2], the “Inhibition [%] QsCR” value [4] was 18%, the “pyocyanin production, single compound screens” value [5] was “strong pyocyanin inhibition, unless phosphate concentrations were low” and the “pyocyanin production in SCFM2, single compound” value ([5]; SCFM2, 17 h, 100 μM compound 2 alone) was “did not attenuate pyocyanin”. The “rhamnolipid production, single compound screens” value [6] was “little to no effect”, the “Inhibition [%] LasR” value [7] was −9% and the “elastase B production, single compound screens” value ([8]; MOPS Glutamate and Glucose media, complete or iron/phosphate depleted, 100 μM (compounds 1, 2, 3), relative to DMSO) was “little to no effect”.

`O=C(CSc1nc2cc([N+](=O)[O-])ccc2[nH]1)Nc1ccc(Oc2ccccc2)cc1` [compound 4, 2-[(6-nitro-1H-benzimidazol-2-yl)-sulfanyl]-N-(4-phenoxyphenyl)acetamide] was tested, and the “pyocyanin production, single compound screens” value [5] was “eliminated pyocyanin synthesis under all conditions tested, even low iron and phosphate”, the “rhamnolipid production, single compound screens” value [6] was “failed to inhibit rhamnolipid production; also recorded: cannot inhibit rhamnolipid” and the “elastase B production in MOPS Glutamate, single compound screen” value ([8]; MOPS Glutamate, 25 μM compound 4) was “strong attenuation of elastase B production”.

— patent publication US10322112B2, “Compound combinations for attenuation of bacterial virulence” (priority 2016, dated 2019)
